Data on five compounds can be found in ChEMBL document CHEMBL3763040, “3,5-Bis(3-alkylaminomethyl-4-hydroxybenzylidene)-4-piperidones: A Novel Class of Potent Tumor-Selective Cytotoxins” (J Med Chem, 2016).

Series [1] in a line: Antiproliferative activity against human Molt4/C8 cells assessed as cell survival after 72 hrs by coulter counter analysis. Conditions: MOLT-4, 72 h. The format is functional, cell-based.
In series [2] the test system is CCRF-CEM. As to the kind of experiment: Antiproliferative activity against human CEM cells assessed as cell survival after 72 hrs by coulter counter analysis. Type of series: functional, cell-based.
Another series concerns L1210. Kind of series: Antiproliferative activity against mouse L1210 cells assessed as cell survival after 48 hrs by coulter counter analysis. The format is functional, cell-based. The settings on record: L1210, 48 h.
Series [3] is described as follows: Cytotoxicity against human HSC2 cells assessed as cell death after 48 hrs by MTT assay. The format is functional. The settings on record: HSC-2, 48 h. Background: Formazan colour is commonly taken as a measure of viable cells.
Series [4] in a line: Cytotoxicity against human HSC3 cells assessed as cell death after 48 hrs by MTT assay. Conditions: HSC-3, 48 h. Type of series: functional.
The nature of series [5]: Cytotoxicity against human HSC4 cells assessed as cell death after 48 hrs by MTT assay. The format is functional. Conditions: HSC-4, 48 h.
Series [6] can be described thus: Cytotoxicity against human HL60 cells assessed as cell death after 48 hrs by MTT assay. The settings on record: HL-60, 48 h. Type of series: functional.
A short description of series [7]: Cytotoxicity against HGF assessed as cell death after 48 hrs by MTT assay. The settings on record: human, HGF cells.
The nature of series [8]: Cytotoxicity against HPC assessed as cell death after 48 hrs by MTT assay. Conditions: human, HPC cells.
Series [9] can be described thus: Cytotoxicity against HPLF assessed as cell death after 48 hrs by MTT assay. The settings on record: human, HPLF cells.
The next series concerns HSC-2. Kind of series: Selectivity index, ratio of CC50 for HGF to CC50 for human HSC2 cells. Conditions: pooled result: one value given for 3 cell lines, strains, targets or settings.
The subject of the next series is HSC-3. As to the kind of experiment: Selectivity index, ratio of CC50 for HGF to CC50 for human HSC3 cells. The settings on record: pooled result: one value given for 3 cell lines, strains, targets or settings.
The subject of another series is HSC-4. Kind of series: Selectivity index, ratio of CC50 for HGF to CC50 for human HSC4 cells. Conditions: pooled result: one value given for 3 cell lines, strains, targets or settings.
The test system of the next series is HL-60. Kind of series: Selectivity index, ratio of CC50 for HGF to CC50 for human HL60 cells. The settings on record: pooled result: one value given for 3 cell lines, strains, targets or settings.
The nature of series [10]: Potency index, ratio of melphalan IC50 to compound IC50 for antiproliferative activity against human Molt4/C8 cells. Type of series: functional, MOLT-4.
Series [11] concerns CCRF-CEM. Kind of series: Potency index, ratio of melphalan IC50 to compound IC50 for antiproliferative activity against human CEM cells. Type of series: functional.
Series [12] can be described thus: Cytotoxicity against human COLO205 cells after 48 hrs by sulforhodamine B assay. The format is functional, cell-based. Conditions: COLO 205, 48 h. (Sulforhodamine B stains cellular protein and so reports cell mass.)
Series [13] in a line: Cytotoxicity against human HCC2998 cells after 48 hrs by sulforhodamine B assay. The format is functional, cell-based. Conditions: HCC 2998, 48 h.
Series [14] can be described thus: Cytotoxicity against human HCT116 cells after 48 hrs by sulforhodamine B assay. The format is functional, cell-based. Conditions: HCT-116, 48 h.
Series [15] is described as follows: Cytotoxicity against human HCT15 cells after 48 hrs by sulforhodamine B assay. The format is functional, cell-based. The settings on record: HCT-15, 48 h.
A further series concerns HT-29. Kind of series: Cytotoxicity against human HT-29 cells after 48 hrs by sulforhodamine B assay. Type of series: functional, cell-based. The settings on record: HT-29, 48 h.
The next series has as its system KM12. Kind of series: Cytotoxicity against human KM12 cells after 48 hrs by sulforhodamine B assay. The settings on record: KM12, 48 h. The format is functional, cell-based.
A short description of series [16]: Cytotoxicity against human SW620 cells after 48 hrs by sulforhodamine B assay. The format is functional, cell-based. The settings on record: SW-620, 48 h.

In the case of `O=C(/C=C/c1ccc(O)cc1)/C=C/c1ccc(O)cc1`, the IC50 in series [1] came to 3.69 µM; in the series with CCRF-CEM [2], 3.38 µM; in the series with L1210, 7.74 µM. Besides, the CC50 in series [3] was found to be 5.3 µM; in series [4], 5.4 µM; in series [5], 4.9 µM; in series [6], 3.9 µM. Also, the CC50 at 48 h was determined as 24 µM in [7], 9.2 µM in series [8] and 16 µM in series [9]. Also, the “Selectivity Index” value is reported as 3.09 with HSC-2, 3.04 in the series with HSC-3, 3.35 in the series on HSC-4 and 4.21 in the series on HL-60.

As for `Cl.Cl.Cl.O=C1/C(=C/c2ccc(O)c(CN3CCOCC3)c2)CNC/C1=C\c1ccc(O)c(CN2CCOCC2)c1`, the 50% inhibitory concentration (IC50) is 1.6 µM in series [1], 1.67 µM in the series on CCRF-CEM [2] and 7.78 µM in the series on L1210. Also, the “Ratio IC50” value was 2.03 in series [10] and 1.48 in the series on CCRF-CEM [11]. Besides, the CC50 stood at 0.6 µM in series [3], 1 µM in series [4], 1.1 µM in series [5] and 0.71 µM in [6]. The CC50 at 48 h in series [7] was 3.7 µM; in series [8] it was 3.4 µM; in [9] it was 3.8 µM. Further, the “Selectivity Index” value with HSC-2 worked out at 6.05; in the series with HSC-3, 3.63; with HSC-4, 3.3; in the series with HL-60, 5.11.

For the compound `O=C1/C(=C/c2ccc(O)cc2)CCC/C1=C\c1ccc(O)cc1`, the IC50 in series [1] was found to be 1.06 µM; in the series on CCRF-CEM [2] it was 6.96 µM; with L1210 it was 10.7 µM. The “Ratio IC50” value in series [10] amounted to 3.06. Also, the CC50 in series [3] was found to be 16 µM; in series [4] it was 50 µM; in series [5] it was 62 µM; in [6] it was 1.9 µM. Besides, the CC50 at 48 h in series [7], in [8] and in [9] was greater than 200 µM throughout. The “Selectivity Index” value with HSC-2 is greater than 12.5; in the series with HSC-3, greater than 4; with HSC-4, greater than 3.23; in the series with HL-60, greater than 105.

`N[C@@H](Cc1ccc(N(CCCl)CCCl)cc1)C(=O)O`: the CC50 is 8.7 µM in series [3], 25 µM in [4], 32 µM in series [5] and 1.4 µM in series [6]. Moreover, the “Selectivity Index” value was 24.1 with HSC-2, 8.4 in the series on HSC-3, 6.56 in the series with HSC-4 and 150 with HL-60.

On to `O=c1[nH]cc(F)c(=O)[nH]1` [FLUOROURACIL], for which the CC50 (in series [12]; in [13]; in series [14]; in series [15]; in the series on HT-29; in the series on KM12) was greater than 2510 µM each time. For the same compound, in [16], the CC50 is greater than 2510 µM. The TGI (in series [12]; in series [13]; in [14]; in series [15]; in the series with HT-29; in the series with KM12) was greater than 1860 µM in each case. The compound also gave a TGI in series [16] greater than 1860 µM.

In general, IC50 refers to the point on the concentration scale where inhibition reaches its midpoint. The term CC50 denotes the concentration giving 50% cytotoxicity. By TGI is commonly meant the concentration giving total growth inhibition. A higher TGI goes with less potent growth arrest.
